Measured values published in patent US20230240988A1, “FLUID GEL COMPOSITIONS” (The University of Birmingham, priority 2020, published 2023).
Like-named read-outs stand apart in the source and are kept apart here.

Columns and labels:
[1] = Release assay of active agents from PEG-DA fluid gel (trans-well, UV/Vis); format: physicochemical; settings: 3% v/v PEG-DA fluid gel (500 rpm), PBS 37° C., 5 hrs
Method: • Active amounts: […] • Standard concentrations of active in PBS were prepared. • Standards were pipetted into a quartz cuvette (1 mm pathlength). • […] spectroscopy was used to measure absorbance between 200 and 700 nm wavelength. • Curves were plotted and used to determine standard curves which were used to determine concentrations. • 0.5 ml PBS was added to the well of a 24 well plate. • The PBS was incubated at 37° C. to equilibrate. 0.1 ml of the fluid gel containing active was placed in a trans-well insert. • The trans-well insert was placed into a well containing PBS. • After a given time period the trans-well insert was removed and placed in a fresh well of PBS. • The release media was then removed and analysed using […] spectroscopy. Concentrations were derived from the standard curves and cumulative release plotted as a function of time.

[2] = tested on: primary ovine chondrocytes; assay: PrestoBlue metabolic activity assay; format: cell-based
Method: All cell work was undertaken on primary ovine chondrocytes. Cells were first expanded, then seeded into wells 24 hrs prior to the application of the fluid gels. Once treatments were added, the cells were cultured for a further 3 days before testing for both metabolic activity and cell viability. In the presence of functionalised particles, suspension wells were used to promote adhesion to the gelled particles, away from the plastic. Metabolic activity assay was undertaken using a PrestoBlue™ assay kit (Invitrogen). In brief, cells were washed with Dulbecco's PBS, and 1 mL of PrestoBlue™ supplemented medium (10%) was added to each well and incubated for 4 hrs. 50 μL of supernatant from each well was transferred to one well of a 96 well plate and fluorescence was measured using a Tecan Spark (Tecan Group Ltd, UK) plate reader with excitation/emission wavelengths set at 550/620 nm.

Row | Compound | release of active agent from fluid gel [1] | also measured
1 | Dextran | able to release | –
2 | CC(C)(O)C(=O)c1ccccc1 [Omnirad-1173, 2-hydroxy-2-methyl-1-phenylpropanone] | – | cell metabolic activity, individual formulation components ([2]; 3 days culture, PEG-DA not cured, 3.5% & 5%): slight reduction in cell metabolism, although not statistical
3 | CC(C)Cc1ccc(C(C)C(=O)O)cc1 (stereo not shown) [Ibuprofen, ibuprofen] | able to release | –
4 | CC(C)(O)C(=O)c1ccc(OCCO)cc1 [Irgacure-2959, 1-[4-(2-Hydroxyethoxy)-phenyl]-2-hydroxy-2-methyl-1-propane-1-one] | – | cell metabolic activity, individual formulation components [2]: slight reduction in cell metabolism
